Test results taken from ChEMBL document CHEMBL4673377 (Bioorg Med Chem Lett, 2021).
The source made the active and inactive calls. The calls are words filed in the database; no cut-off is given here.

How the values were obtained:
[1] = target: Kynurenine 3-monooxygenase (Mus musculus) (UniProt Q91WN4); assay: Inhibition of mouse liver mitochondrial KMO by measuring the 3-HK metabolite formation at 100 nM using L-kynurenine as substrate preincubated for 5 mins followed by substate addition and measured after 30 mins by LC-MS/MS analysis relative to control; details: Mitochondria, time 35.0 min
[2] = target: Kynurenine 3-monooxygenase (Mus musculus, UniProt Q91WN4)
Description: Inhibition of mouse liver mitochondrial KMO by measuring the 3-HK metabolite formation using L-kynurenine as substrate preincubated for 5 mins followed by substate addition and measured after 30 mins by LC-MS/MS analysis

[3] = Permeability of compound at pH 7.4 by PAMPA assay; type: ADME; details: read-out: permeability
[4] = Drug uptake in mouse brain at 10 mg/kg, po after 1 hr; type: ADME, organism-based; details: read-out: Drug uptake
[5] = Plasma concentration in mouse at 10 mg/kg, po after 1 hr; type: ADME, organism-based
in vivo = details: mouse, brain/plasma, po, 10 mg/kg
Description: Ratio of drug level in brain to plasma of mouse at 10 mg/kg, po after 1 hr

[6] = target: T1, Kynurenine 3-monooxygenase (Homo sapiens, UniProt O15229)
Target sequence in this assay (O15229 whole entry): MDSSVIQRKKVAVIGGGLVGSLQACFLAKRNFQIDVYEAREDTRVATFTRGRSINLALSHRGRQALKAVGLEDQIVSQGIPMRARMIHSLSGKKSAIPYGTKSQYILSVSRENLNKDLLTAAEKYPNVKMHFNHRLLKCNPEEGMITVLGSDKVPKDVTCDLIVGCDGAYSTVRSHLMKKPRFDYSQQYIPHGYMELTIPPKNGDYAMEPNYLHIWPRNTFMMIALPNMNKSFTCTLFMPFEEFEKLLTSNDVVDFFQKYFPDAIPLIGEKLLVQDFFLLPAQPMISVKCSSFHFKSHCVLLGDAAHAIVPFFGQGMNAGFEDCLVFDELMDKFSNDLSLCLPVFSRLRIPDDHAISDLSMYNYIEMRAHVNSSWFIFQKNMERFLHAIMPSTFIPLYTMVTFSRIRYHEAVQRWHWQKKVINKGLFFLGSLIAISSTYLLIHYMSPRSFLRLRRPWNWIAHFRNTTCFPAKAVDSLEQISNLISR
Description: Inhibition of KMO (unknown origin)

[7] = target: T1, Kynurenine 3-monooxygenase; assay: Inhibition of human liver mitochondrial KMO at by measuring the 3-HK metabolite formation at 100 nM using L-kynurenine as substrate preincubated for 5 mins followed by substate addition and measured after 30 mins by LC-MS/MS analysis relative to control; details: Mitochondria, time 35.0 min
Target sequence in this assay (O15229 whole entry, looked up): as the sequence (O15229 whole entry) above

Mus musculus [8] = assay: In vivo inhibition of KMO in R6/2 mouse model of HD assessed as decrease in 3-HK level in striatum at 100 mg/kg, po administered twice daily for 7 weeks starting from 5 weeks age; type: functional, organism-based
Mus musculus [9] = assay: Effect on R6/2 mouse model of HD assessed as increase in latency to fall at 100 mg/kg, po administered twice daily for 11 weeks age starting from 5 weeks of age by rotarod test; type: functional, organism-based
Mus musculus [10] = assay: Cognitive enhancing effect in R6/2 mouse model of HD assessed as increase in spontaneous alteration at 100 mg/kg, po administered twice daily for 12 weeks starting from 5 weeks of age by Y-maze test; type: functional, organism-based

Chain of Kynurenine 3-monooxygenase (Mus musculus, UniProt Q91WN4) (Q91WN4 whole entry): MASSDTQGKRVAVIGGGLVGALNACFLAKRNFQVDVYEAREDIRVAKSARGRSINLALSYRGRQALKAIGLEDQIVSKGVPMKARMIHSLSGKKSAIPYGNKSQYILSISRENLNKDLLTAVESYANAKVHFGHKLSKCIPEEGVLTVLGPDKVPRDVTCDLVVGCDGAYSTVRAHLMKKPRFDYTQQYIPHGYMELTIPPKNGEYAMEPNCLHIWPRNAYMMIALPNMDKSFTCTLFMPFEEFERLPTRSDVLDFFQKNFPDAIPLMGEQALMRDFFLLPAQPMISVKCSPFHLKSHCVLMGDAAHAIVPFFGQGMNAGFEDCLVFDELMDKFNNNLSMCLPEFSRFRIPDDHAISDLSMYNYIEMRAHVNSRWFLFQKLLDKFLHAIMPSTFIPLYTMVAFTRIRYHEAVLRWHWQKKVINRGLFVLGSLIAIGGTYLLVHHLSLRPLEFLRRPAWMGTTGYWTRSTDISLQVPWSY
Chain of Kynurenine 3-monooxygenase (Mus musculus) (Q91WN4 whole entry, looked up): as the sequence (Q91WN4 whole entry) above

In the case of `O=S(=O)(Nc1ccc(-c2cccc(Cl)c2)nn1)c1cccnc1`, the inhibition [1] is reported as 31%.

`CN(C)c1ccc(S(=O)(=O)Nc2ccc(-c3cccc(Cl)c3)nn2)cc1` gave an IC50 [2] of 0.402 µM.

`Cc1ccc(S(=O)(=O)Nc2ccc(-c3ccccc3N3CCCC3)nn2)cc1` gave a Papp [3] of 435 nm/s, an IC50 [2] of 0.0017 µM and a concentration at 1 h [4] of 51 ng/g. It also gave a concentration at 1 h [5] of 0.215 µg/mL and a Kp at 1 h (in vivo) of 0.235.

Compound `Cc1ccc(S(=O)(=O)Nc2ccc(-c3cccc4ccncc34)nn2)cc1` has a Papp [3] of 224 nm/s and an IC50 [2] of 0.0472 µM.

For `Cc1ccc(S(=O)(=O)Nc2ccc(-c3ccccc3N(C)C)nn2)cc1`, the Papp [3] was 357 nm/s, the IC50 [2] was 0.0045 µM and the concentration at 1 h [4] was 25 ng/g. For the same compound, the concentration at 1 h [5] was 0.185 µg/mL and the Kp at 1 h (in vivo) was 0.136.

Work on `O=C(O)C1CC1C(=O)c1ccc(Cl)c(Cl)c1` (centres undefined) yielded an IC50 [6] of 0.04 µM.

`Cc1ccc(S(=O)(=O)Nc2ccc(-c3ccccc3N3CCOCC3)nn2)cc1` gave a Papp [3] of 443 nm/s, an IC50 [2] of 0.0039 µM and a concentration at 1 h [4] of 69 ng/g. It also gave a concentration at 1 h [5] of 0.931 µg/mL and a Kp at 1 h (in vivo) of 0.076.

Compound `Cc1ccc(S(=O)(=O)Nc2ccc(-c3cccc4ccn(C)c34)nn2)cc1` has a Papp [3] of 492 nm/s and an IC50 [2] of 0.0291 µM.

In the case of `Cc1cccc(S(=O)(=O)Nc2ccc(-c3cccc(Cl)c3)nn2)c1`, the Papp [3] is reported as 402 nm/s and the IC50 [2] is reported as 0.101 µM.

In the case of `Cc1ccc(S(=O)(=O)Nc2ccc(-c3ccccc3N3CCN(C)CC3)nn2)cc1`, the IC50 [2] is reported as > 0.1 µM.

Compound `CN(C)c1ccccc1S(=O)(=O)Nc1ccc(-c2cccc(Cl)c2)nn1` has a Papp [3] of 357 nm/s and an IC50 [2] of 0.118 µM.

Compound `COc1ccccc1-c1ccc(NS(=O)(=O)c2ccc(C)cc2)nn1` has a Papp [3] of 347 nm/s, an IC50 [2] of 0.0365 µM and a concentration at 1 h [4] of 131 ng/g. It also gave a concentration at 1 h [5] of 2.52 µg/mL and a Kp at 1 h (in vivo) of 0.052.

`CCc1ccccc1-c1ccc(NS(=O)(=O)c2ccc(C)cc2)nn1` showed an IC50 [2] of 0.0292 µM.

With `Cc1ccc(S(=O)(=O)Nc2ccc(-c3ccc(N(C)C)cc3)nn2)cc1` the IC50 [2] was 0.546 µM.

Compound `CN(C)c1cccc(S(=O)(=O)Nc2ccc(-c3cccc(Cl)c3)nn2)c1` has a Papp [3] of 425 nm/s and an IC50 [2] of 0.0317 µM.

Compound `Cc1ccc(S(=O)(=O)Nc2ccc(-c3cccc4c3N(C)CC4)nn2)cc1` has a Papp [3] of 385 nm/s and an IC50 [2] of 0.0169 µM.

With `Cc1ccc(S(=O)(=O)Nc2ccc(-c3cccc(N(C)C)c3)nn2)cc1` the Papp [3] was 324 nm/s and the IC50 [2] was 0.0825 µM.

In the case of `O=C(O)c1cc(-c2ccc(Cl)c(OC3CC3)c2)ncn1`, the Papp [3] is reported as 65 nm/s, the IC50 [2] is reported as 0.0087 µM and the concentration at 1 h [4] is reported as 177 ng/g. For the same compound, the concentration at 1 h [5] was 49.1 µg/mL and the Kp at 1 h (in vivo) was 0.004.

With `O=S(=O)(Nc1ccc(-c2cccc(Cl)c2)nn1)c1ccccn1` the inhibition [1] was 16%.

For `Cc1ccc(S(=O)(=O)Nc2ccc(-c3cccc4cccnc34)nn2)cc1`, the Papp [3] was 441 nm/s, the IC50 [2] was 0.0087 µM and the concentration at 1 h [4] was 2910 ng/g. For the same compound, the concentration at 1 h [5] was 27.9 µg/mL, the inhibition [7] was 36% and the Kp at 1 h (in vivo) was 0.104.

In the case of `Cc1ccc(S(=O)(=O)Nc2ccc(-c3ccccc3N3CCCCC3)nn2)cc1`, the Papp [3] is reported as 506 nm/s, the concentration at 1 h [4] is reported as 230 ng/g and the concentration at 1 h [5] is reported as 0.808 µg/mL. The Activity (Mus musculus [8]) was “Active”, the Kp at 1 h (in vivo) was 0.282 and the Activity (Mus musculus [9]) was “Active”. The Activity (Mus musculus [10]) was “Active”.

Compound `CN(C)c1cccc(S(=O)(=O)Nc2ccc(-c3ccccc3N3CCCC3)nn2)c1` has a Papp [3] of 312 nm/s, an IC50 [2] of 0.0033 µM and a concentration at 1 h [4] of 137 ng/g. It also gave a concentration at 1 h [5] of 0.879 µg/mL and a Kp at 1 h (in vivo) of 0.162.
